Results as given in patent US10251395B2, “Substituted furano-/thienocycloalkylamino-2-pyrimidine derivatives and use thereof for controlling undesired plant growth” (Bayer CropScience Aktiengesellschaft, priority 2015, dated 2019).

Key:
logP (HCOOH) = format: physicochemical; settings: HCOOH
Source text: Table 2 (physicochemical characterization of selected synthesis examples)

Veronica persica [1] = assay: Post-emergence herbicidal effect; format: in vivo; settings: assessed visually after about 3 weeks vs untreated controls
Procedure, shortened: (§1)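 Ratings are visual percentages taken around 3 weeks after treatment, compared with untreated plants. Treatment consisted of an aqueous spray of WP or EC formulations, with 0.2% wetting agent, onto one-leaf-stage weeds raised from seed in sandy loam.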

Matricaria inodora [2] = assay: Post-emergence herbicidal effect; format: in vivo; settings: assessed visually after about 3 weeks vs untreated controls
Procedure, shortened: as §1

Stellaria media [3] = assay: Post-emergence herbicidal effect; format: in vivo; settings: assessed visually after about 3 weeks vs untreated controls
Procedure, shortened: as §1

Polygonum convolvulus [4] = assay: Post-emergence herbicidal effect; format: in vivo; settings: 320 g/ha, assessed visually after about 3 weeks vs untreated controls
Procedure, shortened: as §1

Abutilon theophrasti [5] = assay: Post-emergence herbicidal effect; format: in vivo; settings: assessed visually after about 3 weeks vs untreated controls
Procedure, shortened: as §1

Setaria viridis [6] = assay: Post-emergence herbicidal effect; format: in vivo; settings: 320 g/ha, assessed visually after about 3 weeks vs untreated controls
Procedure, shortened: as §1

Amaranthus retroflexus [7] = assay: Post-emergence herbicidal effect; format: in vivo; settings: assessed visually after about 3 weeks vs untreated controls
Procedure, shortened: as §1

Viola tricolor [8] = assay: Post-emergence herbicidal effect; format: in vivo; settings: assessed visually after about 3 weeks vs untreated controls
Procedure, shortened: as §1

Ipomoea purpurea [9] = assay: Post-emergence herbicidal effect; format: in vivo; settings: assessed visually after about 3 weeks vs untreated controls
Procedure, shortened: as §1

Veronica persica [10] = assay: Pre-emergence herbicidal effect; format: in vivo; settings: scored visually after 3 weeks
Procedure, shortened: (§2)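 Seeds in sandy loam were covered with soil and treated pre-emergence with WP or EC formulations applied as aqueous spray with 0.2% wetting agent. Percent damage was scored visually after 3 weeks relative to untreated controls.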

Matricaria inodora [11] = assay: Pre-emergence herbicidal effect; format: in vivo; settings: scored visually after 3 weeks
Procedure, shortened: as §2

Stellaria media [12] = assay: Pre-emergence herbicidal effect; format: in vivo; settings: scored visually after 3 weeks
Procedure, shortened: as §2

Polygonum convolvulus [13] = assay: Pre-emergence herbicidal effect; format: in vivo; settings: scored visually after 3 weeks
Procedure, shortened: as §2

Avena fatua = assay: Pre-emergence herbicidal effect; format: in vivo; settings: Dosage 320 g/ha, scored visually after 3 weeks
Procedure, shortened: as §2

Abutilon theophrasti [14] = assay: Pre-emergence herbicidal effect; format: in vivo; settings: scored visually after 3 weeks
Procedure, shortened: as §2

Cyperus esculentus = assay: Pre-emergence herbicidal effect; format: in vivo; settings: Dosage 320 g/ha, scored visually after 3 weeks
Procedure, shortened: as §2

Setaria viridis [15] = assay: Pre-emergence herbicidal effect; format: in vivo; settings: scored visually after 3 weeks
Procedure, shortened: as §2

Echinochloa crus-galli = assay: Pre-emergence herbicidal effect; format: in vivo; settings: scored visually after 3 weeks
Procedure, shortened: as §2

Amaranthus retroflexus [16] = assay: Pre-emergence herbicidal effect; format: in vivo; settings: scored visually after 3 weeks
Procedure, shortened: as §2

Lolium multiflorum = assay: Pre-emergence herbicidal effect; format: in vivo; settings: Dosage 320 g/ha, scored visually after 3 weeks
Procedure, shortened: as §2

Viola tricolor [17] = assay: Pre-emergence herbicidal effect; format: in vivo; settings: scored visually after 3 weeks
Procedure, shortened: as §2

Alopecurus myosuroides = assay: Pre-emergence herbicidal effect; format: in vivo; settings: Dosage 320 g/ha, scored visually after 3 weeks
Procedure, shortened: as §2

Ipomoea purpurea [18] = assay: Pre-emergence herbicidal effect; format: in vivo; settings: scored visually after 3 weeks
Procedure, shortened: as §2

SMILES	post-emergence efficacy VERPE (Veronica persica [1]; 320 g/ha) [%]	post-emergence efficacy MATIN (Matricaria inodora [2]; 320 g/ha) [%]	post-emergence efficacy STEME (Stellaria media [3]; 80 g/ha) [%]	post-emergence efficacy STEME (Stellaria media [3]; 320 g/ha) [%]	post-emergence efficacy AMARE (Amaranthus retroflexus [7]; 80 g/ha) [%]	post-emergence efficacy AMARE (Amaranthus retroflexus [7]; 320 g/ha) [%]	post-emergence efficacy VIOTR (Viola tricolor [8]; 80 g/ha) [%]	post-emergence efficacy VIOTR (Viola tricolor [8]; 320 g/ha) [%]	post-emergence efficacy PHBPU (Ipomoea purpurea [9]; 320 g/ha) [%]	VERPE pre-emergence efficacy (herbicidal activity) (Veronica persica [10]; Dosage 80 g/ha) [%]	VERPE pre-emergence efficacy (herbicidal activity) (Veronica persica [10]; Dosage 320 g/ha) [%]	MATIN pre-emergence efficacy (herbicidal activity) (Matricaria inodora [11]; Dosage 80 g/ha) [%]	MATIN pre-emergence efficacy (herbicidal activity) (Matricaria inodora [11]; Dosage 320 g/ha) [%]	STEME pre-emergence efficacy (herbicidal activity) (Stellaria media [12]; Dosage 80 g/ha) [%]	STEME pre-emergence efficacy (herbicidal activity) (Stellaria media [12]; Dosage 320 g/ha) [%]	CYPES pre-emergence efficacy (herbicidal activity) (Cyperus esculentus) [%]	SETVI pre-emergence efficacy (herbicidal activity) (Setaria viridis [15]; Dosage 320 g/ha) [%]	ECHCG pre-emergence efficacy (herbicidal activity) (Echinochloa crus-galli; Dosage 320 g/ha) [%]	LOLMU pre-emergence efficacy (herbicidal activity) (Lolium multiflorum) [%]	VIOTR pre-emergence efficacy (herbicidal activity) (Viola tricolor [17]; Dosage 80 g/ha) [%]	other results
CS(=O)(=O)c1cnc(N[C@@H]2CCCc3sccc32)nc1N [compound 24]	100	100	80	100	90	90	90	100	100	100	100	100	100	100	100	60	100	100	100	100	logP (HCOOH) (logP (HCOOH)): solid; logP (HCOOH): 1.82; 1H NMR (CDCl3, 400 MHZ, δ in ppm): 1.85 (m, 3H, 3H; post-emergence efficacy VERPE (Veronica persica [1]; 80 g/ha): 90%; post-emergence efficacy MATIN (Matricaria inodora [2]; 80 g/ha): 80%; post-emergence efficacy POLCO (Polygonum convolvulus [4]): 80%; post-emergence efficacy ABUTH (Abutilon theophrasti [5]; 80 g/ha): 100%; post-emergence efficacy ABUTH (Abutilon theophrasti [5]; 320 g/ha): 100%; post-emergence efficacy SETVI (Setaria viridis [6]): 80%; post-emergence efficacy PHBPU (Ipomoea purpurea [9]; 80 g/ha): 80%; POLCO pre-emergence efficacy (herbicidal activity) (Polygonum convolvulus [13]; Dosage 80 g/ha): 100%; POLCO pre-emergence efficacy (herbicidal activity) (Polygonum convolvulus [13]; Dosage 320 g/ha): 100%; AVEFA pre-emergence efficacy (herbicidal activity) (Avena fatua): 90%; ABUTH pre-emergence efficacy (herbicidal activity) (Abutilon theophrasti [14]; Dosage 320 g/ha): 100%; SETVI pre-emergence efficacy (herbicidal activity) (Setaria viridis [15]; Dosage 80 g/ha): 90%; ECHCG pre-emergence efficacy (herbicidal activity) (Echinochloa crus-galli; Dosage 80 g/ha): 100%; AMARE pre-emergence efficacy (herbicidal activity) (Amaranthus retroflexus [16]; Dosage 80 g/ha): 100%; AMARE pre-emergence efficacy (herbicidal activity) (Amaranthus retroflexus [16]; Dosage 320 g/ha): 100%; VIOTR pre-emergence efficacy (herbicidal activity) (Viola tricolor [17]; Dosage 320 g/ha): 100%; ALOMY pre-emergence efficacy (herbicidal activity) (Alopecurus myosuroides): 100%; PHBPU pre-emergence efficacy (herbicidal activity) (Ipomoea purpurea [18]; Dosage 320 g/ha): 100%
CC(=NO)c1cnc(NC2CCCc3sc(C)cc32)nc1N (stereo not shown) [compound 286]	100	90	70	100	90	90	90	90	70	100	100	80	100	60	100	70	100	100	80	100	post-emergence efficacy MATIN (Matricaria inodora [2]; 80 g/ha): 80%; post-emergence efficacy ABUTH (Abutilon theophrasti [5]; 80 g/ha): 90%; post-emergence efficacy ABUTH (Abutilon theophrasti [5]; 320 g/ha): 90%; post-emergence efficacy PHBPU (Ipomoea purpurea [9]; 80 g/ha): 70%; POLCO pre-emergence efficacy (herbicidal activity) (Polygonum convolvulus [13]; Dosage 320 g/ha): 100%; ABUTH pre-emergence efficacy (herbicidal activity) (Abutilon theophrasti [14]; Dosage 80 g/ha): 70%; ABUTH pre-emergence efficacy (herbicidal activity) (Abutilon theophrasti [14]; Dosage 320 g/ha): 60%; AMARE pre-emergence efficacy (herbicidal activity) (Amaranthus retroflexus [16]; Dosage 320 g/ha): 100%; VIOTR pre-emergence efficacy (herbicidal activity) (Viola tricolor [17]; Dosage 320 g/ha): 100%; ALOMY pre-emergence efficacy (herbicidal activity) (Alopecurus myosuroides): 60%; PHBPU pre-emergence efficacy (herbicidal activity) (Ipomoea purpurea [18]; Dosage 80 g/ha): 100%; PHBPU pre-emergence efficacy (herbicidal activity) (Ipomoea purpurea [18]; Dosage 320 g/ha): 50%
CC(=O)c1cnc(NC2CCCc3sccc32)nc1N (stereo not shown) [compound 301]	100	60	60	60	80	80	80	90	90	100	100	100	100	100	100	70	100	100	100	100	SETVI pre-emergence efficacy (herbicidal activity) (Setaria viridis [15]; Dosage 80 g/ha): 100%; ECHCG pre-emergence efficacy (herbicidal activity) (Echinochloa crus-galli; Dosage 80 g/ha): 70%; VIOTR pre-emergence efficacy (herbicidal activity) (Viola tricolor [17]; Dosage 320 g/ha): 100%; ALOMY pre-emergence efficacy (herbicidal activity) (Alopecurus myosuroides): 80%; PHBPU pre-emergence efficacy (herbicidal activity) (Ipomoea purpurea [18]; Dosage 80 g/ha): 100%; PHBPU pre-emergence efficacy (herbicidal activity) (Ipomoea purpurea [18]; Dosage 320 g/ha): 100%
